The values below come from patent US12060347B2 (BRISTOL-MYERS SQUIBB COMPANY, priority 2016, dated 2024).

This assay concerns the target T1, human PAR4 (Homo sapiens, UniProt Q96RI0).
T1 construct: expressed in transfected cells; host or cells: HEK293 PAR4 Clone 1.2A (BMS Arctic ID 383940)
T1 sequence (Q96RI0 18-385): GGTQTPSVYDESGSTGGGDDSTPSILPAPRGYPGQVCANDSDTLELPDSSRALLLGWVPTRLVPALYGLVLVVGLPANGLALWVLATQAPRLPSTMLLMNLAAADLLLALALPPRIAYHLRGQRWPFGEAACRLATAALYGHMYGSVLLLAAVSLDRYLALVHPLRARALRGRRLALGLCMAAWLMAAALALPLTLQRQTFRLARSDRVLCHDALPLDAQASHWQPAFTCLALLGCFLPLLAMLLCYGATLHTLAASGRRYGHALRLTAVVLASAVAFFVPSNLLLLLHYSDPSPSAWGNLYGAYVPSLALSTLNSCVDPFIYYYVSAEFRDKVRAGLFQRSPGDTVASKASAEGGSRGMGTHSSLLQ
Nature of the assay: PAR4 FLIPR assay: antagonism of agonist-peptide-induced calcium mobilization in PAR4-expressing HEK293 cells. It is filed as cell-based. As to conditions: H-Ala-Phe(4-F)-[…]NH2-induced intracellular calcium mobilization, 11-point curves.

As to `COc1cnc2c(-c3nc4c(C)c(C)c(OC)cc4s3)cc(CO)cc2n1` [Example 219, (3-methoxy-8-(6-methoxy-4,5-dimethylbenzo [d]thiazol-2-yl)quinoxalin-6-yl)methanol], the IC50 was determined as 5.5 nM.
The figure for `COCc1cnc2c(-c3nc4c(C)cc(OCCNS(=O)(=O)c5ccc(F)cc5)cc4s3)cc(C(=O)OC)cc2n1` [Example 205, methyl 8-(6-(2-(4-fluorophenylsulfonamido)ethoxy)-4-methylbenzo[d]thiazol-2-yl)-3-(methoxymethyl)quinoxaline-6-carboxylate] is 51 nM.
As to `Cc1cc(-c2nc3c(s2)CCCC3)c2ncc(OC(F)F)nc2c1` [Example 178, 2-(2-(difluoromethoxy)-7-methylquinoxalin-5-yl)-4,5,6,7-tetrahydrobenzo[d]thiazole], the IC50 worked out at 13 nM.
Next, `CCOc1cnc2c(-c3nc4cc(F)c(O[C@@H](C)[C@@H](C)OC(=O)Nc5cnc(CCOP(=O)(O)O)nc5)cc4s3)cc(C)cc2n1` [Example 624, (2R,3S)-3-((2-(2-ethoxy-7-methylquinoxalin-5-yl)-5-fluorobenzo[d]thiazol-6-yl)oxy)butan-2-yl (2-(2-(phosphonooxy)ethyl)pyrimidin-5-yl)carbamate]: 0.7 nM; `COc1cnc2c(-c3nc4c(Cl)c(F)c(OC[C@@H](C)OC(=O)Nc5cnc(F)c(C)c5)cc4s3)cc(C)cc2n1` [Example 402, (R)-1-((4-chloro-5-fluoro-2-(2-methoxy-7-methylquinoxalin-5-yl)benzo[d]thiazol-6-yl)oxy)propan-2-yl (6-fluoro-5-methylpyridin-3-yl)carbamate]: 3.7 nM; `COc1cnc2c(-c3nc4cc(F)c(O[C@@H](C)[C@@H](C)OC(=O)Nc5cnc(OC)nc5)nc4s3)cc(C)cc2n1` [Example 711, (2R,3S)-3-((6-fluoro-2-(2-methoxy-7-methylquinoxalin-5-yl)thiazolo[5,4-b]pyridin-5-yl)oxy)butan-2-yl (2-methoxypyrimidin-5-yl)carbamate]: 2.4 nM.
Take `Cc1cc(-c2nc3c(C)cc(OCCNS(=O)(=O)c4ccc(Cl)cc4)cc3s2)c2ncc(OC(F)F)nc2c1` [Example 86, 4-chloro N-(2-(2-(2-(difluoromethoxy)-7-methylquinoxalin-5-yl)-4-methylbenzo[d]thiazol-6-yloxy)ethyl)benzenesulfonamide]: the IC50 stood at 7.2 nM.
The figure for `COC(=O)c1cccc2nc(-c3cc(C)cc4nc(OC(F)F)cnc34)sc12` [Example 61, Methyl 2-(2-(difluoromethoxy)-7-methylquinoxalin-5-yl)benzo[d]thiazole-7-carboxylate] is 43 nM; for `COc1cnc2c(-c3nc4c(C)cc(OCCOC(=O)Nc5ccc(C)nc5)cc4s3)cc(CO)cc2n1` [Example 128, 2-(2-(7-(hydroxymethyl)-2-methoxyquinoxalin-5-yl)-4-methylbenzo[d]thiazol-6-yloxy)ethyl 6-methylpyridin-3-ylcarbamate] it is 2.2 nM.
The figure for `COc1cc(F)cc(C(O)c2cc(OC)cc3sc(-c4cc(C)cc5nc(OC)cnc45)nc23)c1` (stereo not shown) [Example 675, (3-fluoro-5-methoxyphenyl)(6-methoxy-2-(2-methoxy-7-methylquinoxalin-5-yl)benzo[d]thiazol-4-yl)methanol] is 10 nM; for `COc1cnc2c(-c3nc4c(Cl)c(F)c(O[C@@H](C)[C@@H](C)OC(=O)Nc5ccc(F)nc5)cc4s3)cc(Cl)cc2c1` [Example 797, (2R,3S)-3-((4-chloro-2-(6-chloro-3-methoxyquinolin-8-yl)-5-fluorobenzo[d]thiazol-6-yl)oxy)butan-2-yl (6-fluoropyridin-3-yl)carbamate] it is 3.1 nM; for `COCc1cnc2c(-c3nc4c(C)cc(OCCNS(=O)(=O)c5cccc(F)c5)cc4s3)cc(C)cc2n1` [Example 97, 3-fluoro N-(2-(2-(2-(methoxymethyl)-7-methylquinoxalin-5-yl)-4-methylbenzo[d]thiazol-6-yloxy)ethyl)benzenesulfonamide] it is 1.7 nM.
Next, `COCc1cnc2c(-c3nc4c(C(O)c5ccccn5)cc(OC)cc4s3)cc(C)cc2n1` (stereo not shown) [Example 167, (6-methoxy-2-(2-(methoxymethyl)-7-methylquinoxalin-5-yl)benzo[d]thiazol-4-yl)(pyridin-2-yl)methanol]: 4.5 nM; `COc1cnc2c(-c3nc4cc(F)c(O[C@@H](C)[C@@H](C)OC(=O)Nc5cnc(CCO)nc5)nc4s3)cc(C)cc2n1` [Example 720, (2R,3S)-3-((6-fluoro-2-(2-methoxy-7-methylquinoxalin-5-yl)thiazolo[5,4-b]pyridin-5-yl)oxy)butan-2-yl (2-(2-hydroxyethyl)pyrimidin-5-yl)carbamate]: 3.2 nM; `COc1cnc2c(-c3nc4cc(F)c(OC[C@@H](C)OC(=O)Nc5ccc(C(=O)N6CCC[C@@H](O)C6)nc5)cc4s3)cc(C)cc2n1` [Example 485, (R)-1-((5-fluoro-2-(2-methoxy-7-methylquinoxalin-5-yl)benzo[d]thiazol-6-yl)oxy)propan-2-yl (6-((R)-3-hydroxypiperidine-1-carbonyl)pyridin-3-yl)carbamate]: 1.6 nM.
For the compound `COc1cnc2c(-c3nc4cc(F)c(OCCOC(=O)Nc5cccnc5)cc4s3)cc(C)cc2n1` [Example 339, 2-((5-fluoro-2-(2-methoxy-7-methylquinoxalin-5-yl)benzo[d]thiazol-6-yl)oxy)ethyl pyridin-3-ylcarbamate], the IC50 stood at 1.6 nM.
Next, `COc1cnc2c(-c3nc4cc(F)c(O[C@@H](C)[C@@H](C)OC(=O)Nc5cnc(CC(C)(C)O)nc5)cc4s3)cc(C)cc2n1` [Example 577, (2R,3S)-3-((5-fluoro-2-(2-methoxy-7-methylquinoxalin-5-yl)benzo[d]thiazol-6-yl)oxy)butan-2-yl (2-(2-hydroxy-2-methylpropyl)pyrimidin-5-yl)carbamate]: 1 nM; `COc1cnc2c(-c3nc4cc(F)c(O[C@@H](C)[C@@H](C)OC(=O)Nc5cnc(CO)nc5)nc4s3)cc(Cl)cc2c1` [Example 793, (2R,3S)-3-((2-(6-chloro-3-methoxyquinolin-8-yl)-6-fluorothiazolo[5,4-b]pyridin-5-yl)oxy)butan-2-yl (2-(hydroxymethyl)pyrimidin-5-yl)carbamate]: 24 nM.
Next, `COc1cnc2c(-c3nc4c(Cl)c(F)c(OCCOC(=O)Nc5ccc6[nH]c(=O)oc6c5)cc4s3)cc(C)cc2n1` [Example 333, 2((4-chloro-5-fluoro-2-(2-methoxy-7-methylquinoxalin-5-yl)benzo[d]thiazol-6-yl)oxy)ethyl (2-oxo-2,3-dihydrobenzo[d]oxazol-6-yl)carbamate]: 1.7 nM; `COc1cnc2c(-c3nc4c(Cl)c(F)c(O[C@@H](C)[C@@H](C)OC(=O)Nc5cccnc5)cc4s3)cc(Cl)cc2c1` [Example 799, (2R,3S)-3-((4-chloro-2-(6-chloro-3-methoxyquinolin-8-yl)-5-fluorobenzo[d]thiazol-6-yl)oxy)butan-2-yl pyridin-3-ylcarbamate]: 2.9 nM.
Turning to `COCc1cnc2c(-c3nc4ccc(CO)cc4s3)cc(C)cc2n1` [Example 308, (2-(2-(methoxymethyl)-7-methylquinoxalin-5-yl)benzo[d]thiazol-6-yl)methanol], the IC50 came out at 3.6 nM.
The figure for `COc1cnc2c(-c3nc4c(s3)CC(CCO)C4)cc(C)cc2n1` (stereo not shown) [Example 142, 2-(2-(2-methoxy-7-methylquinoxalin-5-yl)-5,6-dihydro-4H-cyclopenta[d]thiazol-5-yl) ethanol] is 5.6 nM; for `COc1cnc2c(-c3nc4cc(F)c(OC[C@@H](C)OC(=O)Nc5ccnc(OCCC(C)(C)O)c5)nc4s3)cc(C)cc2n1` [Example 699, (R)-1-((6-fluoro-2-(2-methoxy-7-methylquinoxalin-5-yl)thiazolo[5,4-b]pyridin-5-yl)oxy) propan-2-yl (2-(3-hydroxy-3-methylbutoxy)pyridin-4-yl)carbamate] it is 1.1 nM.
As to `COc1cnc2c(-c3nc4c(C)cc(OCCNS(=O)(=O)c5ccc(F)cc5)cc4s3)cc(C(O)c3ccccc3)cc2n1` (stereo not shown) [Example 240, 4-fluoro-N-(2-((2-(7-(hydroxy(phenyl)methyl)-2-methoxyquinoxalin-5-yl)-4-methylbenzo[d]thiazol-6-yl)oxy)ethyl)benzenesulfonamide], the IC50 worked out at 72 nM.
For `COCc1cnc2c(-c3nc4c(Cl)cc(OCCNS(=O)(=O)c5cccc(F)c5)cc4s3)cc(C)cc2n1` [Example 102, N-(2-(4-chloro-2-(2-(methoxymethyl)-7-methylquinoxalin-5-yl)benzo[d]thiazol-6-yloxy)ethyl)-3-fluorobenzenesulfonamide], the IC50 stood at 0.9 nM.
The figure for `COc1cnc2c(-c3cc4cc(OC)c(F)c(Cl)c4o3)cc(C)cc2n1` [Example 122, 5-(7-chloro-6-fluoro-5-methoxybenzofuran-2-yl)-2-methoxy-7-methylquinoxaline] is 3.9 nM.
Next, `COCc1cnc2c(-c3nc4cc(Cl)c(OC)cc4s3)cc(C)cc2n1` [Example 268, 5-chloro-6-methoxy-2-(2-(methoxymethyl)-7-methylquinoxalin-5-yl)benzo[d]thiazole]: 0.9 nM; `COc1cnc2c(-c3nc4c(Cl)c(F)c(O[C@@H](C)[C@@H](C)OC(=O)Nc5cnc(C)c(C)c5)cc4s3)cc(Cl)cc2c1` [Example 800, (2R,3S)-3-((4-chloro-2-(6-chloro-3-methoxyquinolin-8-yl)-5-fluorobenzo[d]thiazol-6-yl)oxy)butan-2-yl (5,6-dimethylpyridin-3-yl)carbamate]: 2.5 nM.
